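Step 1: Grow cells in 96-well plates. Step 2: Expose to compound for 48 hours at 5 concentrations. Step 3: Interpolate endpoints linearly; if unreached, use highest concentration. GI50: concentration for 50% inhibition of growth. TGI: concentration producing complete growth inhibition.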
Assays:
Test in all cases: inhibition of tumour cell growth, NCI panel, 48 h
[1] = system: 786-0 renal
[2] = system: A498 renal
[3] = system: A549 NSCLC
[4] = system: ACHN renal
[5] = system: BT-549 breast
[6] = system: CAKI-1 renal
[7] = system: CCRF-CEM leukemia
[8] = system: COLO 205 colon
[9] = system: DU-145 prostate
[10] = system: EKVX NSCLC
[11] = system: HCC-2998 colon
[12] = system: HCT-116 colon
[13] = system: HCT-15 colon
[14] = system: HL-60(TB) leukemia
[15] = system: HOP-62 NSCLC
[16] = system: HOP-92 NSCLC
[17] = system: HS 578T breast
[18] = system: HT29 colon
[19] = system: IGROV1 ovarian
[20] = system: K-562 leukemia
[21] = system: KM12 colon
[22] = system: LOX IMVI melanoma
[23] = system: MALME-3M melanoma
[24] = system: MDA-MB-231 breast
[25] = system: MDA-MB-435
[26] = system: MOLT-4 leukemia
[27] = system: NCI-H226 lung
[28] = system: NCI-H23 lung
[29] = system: NCI-H460 lung
[30] = system: NCI-H522 lung
[31] = system: NCI/ADR-RES ovarian
[32] = system: OVCAR-3 ovarian
[33] = system: OVCAR-4 ovarian
[34] = system: OVCAR-5 ovarian
[35] = system: OVCAR-8 ovarian
[36] = system: PC-3 prostate
[37] = system: RPMI-8226 leukemia
[38] = system: RXF 393 renal
[39] = system: SF-268 CNS
[40] = system: SF-295 CNS
[41] = system: SF-539 CNS
[42] = system: SK-MEL-2 melanoma
[43] = system: SK-MEL-28 melanoma
[44] = system: SK-MEL-5 melanoma
[45] = system: SK-OV-3 ovarian
[46] = system: SN12C renal
[47] = system: SNB-19 CNS
[48] = system: SNB-75 CNS
[49] = system: SW-620 colon
[50] = system: T-47D breast
[51] = system: TK-10 renal
[52] = system: U251 CNS
[53] = system: UACC-257 melanoma
[54] = system: UACC-62 melanoma
[55] = system: UO-31 renal
[56] = system: M14 melanoma
[57] = system: MCF7 breast
[58] = system: SR leukemia

SMILES: COc1ccc(Nc2ncccc2C(=O)NCc2cn(Cc3cccc(Oc4ccccc4)c3)nn2)cc1
- GI50 [1]: 5.59 µM
- TGI [1]: > 100 µM
- GI50 [2]: 2.35 µM
- TGI [2]: 8.71 µM
- GI50 [3]: 3.44 µM
- TGI [3]: > 100 µM
- GI50 [4]: 4.79 µM
- TGI [4]: > 100 µM
- GI50 [5]: 4.58 µM
- TGI [5]: > 100 µM
- GI50 [6]: 3.41 µM
- TGI [6]: > 100 µM
- GI50 [7]: 3.8 µM
- TGI [7]: > 100 µM
- GI50 [8]: 2.86 µM
- TGI [8]: 7.93 µM
- GI50 [9]: 3.76 µM
- TGI [9]: > 100 µM
- GI50 [10]: 4.16 µM
- TGI [10]: > 100 µM
- GI50 [11]: 2.53 µM
- TGI [11]: 6.85 µM
- GI50 [12]: 4.17 µM
- TGI [12]: > 100 µM
- GI50 [13]: 3.93 µM
- TGI [13]: > 100 µM
- GI50 [14]: 2.66 µM
- TGI [14]: > 100 µM
- GI50 [15]: 5.07 µM
- TGI [15]: > 100 µM
- GI50 [16]: 5.67 µM
- TGI [16]: > 100 µM
- GI50 [17]: 5.9 µM
- TGI [17]: > 100 µM
- GI50 [18]: 3.66 µM
- TGI [18]: 15.4 µM
- GI50 [19]: 5.89 µM
- TGI [19]: > 100 µM
- GI50 [20]: 3.48 µM
- TGI [20]: > 100 µM
- GI50 [21]: 3.43 µM
- TGI [21]: > 100 µM
- GI50 [22]: 3.6 µM
- TGI [22]: > 100 µM
- GI50 [23]: 3.8 µM
- TGI [23]: > 100 µM
- GI50 [24]: 3.09 µM
- TGI [24]: 8.62 µM
- GI50 [25]: 1.71 µM
- TGI [25]: 4.34 µM
- GI50 [26]: 2.91 µM
- TGI [26]: > 100 µM
- GI50 [27]: 3.92 µM
- TGI [27]: > 100 µM
- GI50 [28]: 3.45 µM
- TGI [28]: > 100 µM
- GI50 [29]: 3.52 µM
- TGI [29]: > 100 µM
- GI50 [30]: 2.13 µM
- TGI [30]: 5.44 µM
- GI50 [31]: 2.12 µM
- TGI [31]: 6.69 µM
- GI50 [32]: 2.98 µM
- TGI [32]: 7.59 µM
- GI50 [33]: 5.19 µM
- TGI [33]: > 100 µM
- GI50 [34]: 4.23 µM
- TGI [34]: > 100 µM
- GI50 [35]: 3.72 µM
- TGI [35]: > 100 µM
- GI50 [36]: 3.86 µM
- TGI [36]: > 100 µM
- GI50 [37]: 4.84 µM
- TGI [37]: > 100 µM
- GI50 [38]: 2.59 µM
- TGI [38]: 7.16 µM
- GI50 [39]: 4.59 µM
- TGI [39]: > 100 µM
- GI50 [40]: 2.94 µM
- TGI [40]: > 100 µM
- GI50 [41]: 2.79 µM
- TGI [41]: 6.69 µM
- GI50 [42]: 3.66 µM
- TGI [42]: > 100 µM
- GI50 [43]: 3.88 µM
- TGI [43]: > 100 µM
- GI50 [44]: 2.9 µM
- TGI [44]: > 100 µM
- GI50 [45]: 3.11 µM
- TGI [45]: 9.63 µM
- GI50 [46]: 4.75 µM
- TGI [46]: > 100 µM
- GI50 [47]: 3.55 µM
- TGI [47]: > 100 µM
- GI50 [48]: 3.09 µM
- TGI [48]: > 100 µM
- GI50 [49]: 3.86 µM
- TGI [49]: > 100 µM
- GI50 [50]: 4.03 µM
- TGI [50]: > 100 µM
- GI50 [51]: 4.59 µM
- TGI [51]: > 100 µM
- GI50 [52]: 3.91 µM
- TGI [52]: > 100 µM
- GI50 [53]: 4.82 µM
- TGI [53]: > 100 µM
- GI50 [54]: 3.13 µM
- TGI [54]: > 100 µM
- GI50 [55]: 3 µM
- TGI [55]: > 100 µM

SMILES: C=C1N(C)c2ccc(Cl)cc2C1(C)C
- GI50 [1]: 16.9 µM
- TGI [1]: 96.1 µM
- GI50 [2]: 11 µM
- TGI [2]: 43.6 µM
- GI50 [3]: 17.4 µM
- TGI [3]: > 100 µM
- GI50 [4]: 24.6 µM
- TGI [4]: > 100 µM
- GI50 [5]: 3.35 µM
- TGI [5]: 22.3 µM
- GI50 [6]: 19.2 µM
- TGI [6]: 68.5 µM
- GI50 [7]: 12.9 µM
- TGI [7]: 69.2 µM
- GI50 [8]: 2.1 µM
- TGI [8]: 4.36 µM
- GI50 [9]: 6.66 µM
- TGI [9]: > 100 µM
- GI50 [10]: 4.59 µM
- TGI [10]: > 100 µM
- GI50 [11]: 6.25 µM
- TGI [11]: > 100 µM
- GI50 [12]: 3.52 µM
- TGI [12]: 17.5 µM
- GI50 [13]: 29.1 µM
- TGI [13]: > 100 µM
- GI50 [14]: 2.33 µM
- TGI [14]: 8.85 µM
- GI50 [15]: 11.2 µM
- TGI [15]: 72.2 µM
- GI50 [16]: 3.72 µM
- TGI [16]: 22.9 µM
- GI50 [17]: 6.34 µM
- TGI [17]: > 100 µM
- GI50 [18]: 3.24 µM
- TGI [18]: 18.6 µM
- GI50 [19]: 8.35 µM
- TGI [19]: 65.4 µM
- GI50 [20]: 3.75 µM
- TGI [20]: > 100 µM
- GI50 [21]: 3.95 µM
- TGI [21]: 13.7 µM
- GI50 [22]: 6.98 µM
- TGI [22]: 55.5 µM
- GI50 [56]: 5.73 µM
- TGI [56]: 24.5 µM
- GI50 [23]: 3.32 µM
- TGI [23]: 20.5 µM
- GI50 [57]: 6.65 µM
- TGI [57]: 58.7 µM
- GI50 [24]: 16.7 µM
- TGI [24]: 57.4 µM
- GI50 [25]: 3.7 µM
- TGI [25]: 23.5 µM
- GI50 [26]: 6.94 µM
- TGI [26]: 55 µM
- GI50 [27]: 16.4 µM
- TGI [27]: > 100 µM
- GI50 [28]: 5.47 µM
- TGI [28]: > 100 µM
- GI50 [29]: 4.94 µM
- TGI [29]: 36.1 µM
- GI50 [30]: 5.91 µM
- TGI [30]: 74.8 µM
- GI50 [31]: 34.8 µM
- TGI [31]: > 100 µM
- GI50 [32]: 4.95 µM
- TGI [32]: 38.2 µM
- GI50 [33]: 4.83 µM
- TGI [33]: > 100 µM
- GI50 [34]: 31 µM
- TGI [34]: > 100 µM
- GI50 [35]: 9.67 µM
- TGI [35]: > 100 µM
- GI50 [37]: 2.56 µM
- TGI [37]: 10.4 µM
- GI50 [38]: 6.41 µM
- TGI [38]: 35.8 µM
- GI50 [39]: 5.71 µM
- TGI [39]: > 100 µM
- GI50 [40]: 4.17 µM
- TGI [40]: 38.5 µM
- GI50 [41]: 19.6 µM
- TGI [41]: 62.5 µM
- GI50 [42]: 13.5 µM
- TGI [42]: 42.8 µM
- GI50 [43]: 19.7 µM
- TGI [43]: > 100 µM
- GI50 [44]: 4.32 µM
- TGI [44]: 15 µM
- GI50 [45]: 18.1 µM
- TGI [45]: 65.4 µM
- GI50 [46]: 5.38 µM
- TGI [46]: 38.1 µM
- GI50 [47]: 8.75 µM
- TGI [47]: > 100 µM
- GI50 [48]: 4.25 µM
- TGI [48]: 77.3 µM
- GI50 [58]: 2.74 µM
- TGI [58]: 8.94 µM
- GI50 [49]: 5.8 µM
- TGI [49]: > 100 µM
- GI50 [50]: 3.54 µM
- TGI [50]: > 100 µM
- GI50 [51]: 14.7 µM
- TGI [51]: 69.2 µM
- GI50 [52]: 3.68 µM
- TGI [52]: 57.2 µM
- GI50 [53]: 6.84 µM
- TGI [53]: 60.5 µM
- GI50 [54]: 11.7 µM
- TGI [54]: 29.5 µM
- GI50 [55]: 27.9 µM
- TGI [55]: > 100 µM

Source: PubChem BioAssay (NCI)
